{"source": "ChEMBL document CHEMBL1221293", "about": "“New effective inhibitors of the Abelson kinase” (Bioorg Med Chem, 2010)", "data": [{"molecular_target": "Tyrosine-protein kinase ABL1 (Homo sapiens, UniProt P00519)", "sequence (P00519 whole entry)": "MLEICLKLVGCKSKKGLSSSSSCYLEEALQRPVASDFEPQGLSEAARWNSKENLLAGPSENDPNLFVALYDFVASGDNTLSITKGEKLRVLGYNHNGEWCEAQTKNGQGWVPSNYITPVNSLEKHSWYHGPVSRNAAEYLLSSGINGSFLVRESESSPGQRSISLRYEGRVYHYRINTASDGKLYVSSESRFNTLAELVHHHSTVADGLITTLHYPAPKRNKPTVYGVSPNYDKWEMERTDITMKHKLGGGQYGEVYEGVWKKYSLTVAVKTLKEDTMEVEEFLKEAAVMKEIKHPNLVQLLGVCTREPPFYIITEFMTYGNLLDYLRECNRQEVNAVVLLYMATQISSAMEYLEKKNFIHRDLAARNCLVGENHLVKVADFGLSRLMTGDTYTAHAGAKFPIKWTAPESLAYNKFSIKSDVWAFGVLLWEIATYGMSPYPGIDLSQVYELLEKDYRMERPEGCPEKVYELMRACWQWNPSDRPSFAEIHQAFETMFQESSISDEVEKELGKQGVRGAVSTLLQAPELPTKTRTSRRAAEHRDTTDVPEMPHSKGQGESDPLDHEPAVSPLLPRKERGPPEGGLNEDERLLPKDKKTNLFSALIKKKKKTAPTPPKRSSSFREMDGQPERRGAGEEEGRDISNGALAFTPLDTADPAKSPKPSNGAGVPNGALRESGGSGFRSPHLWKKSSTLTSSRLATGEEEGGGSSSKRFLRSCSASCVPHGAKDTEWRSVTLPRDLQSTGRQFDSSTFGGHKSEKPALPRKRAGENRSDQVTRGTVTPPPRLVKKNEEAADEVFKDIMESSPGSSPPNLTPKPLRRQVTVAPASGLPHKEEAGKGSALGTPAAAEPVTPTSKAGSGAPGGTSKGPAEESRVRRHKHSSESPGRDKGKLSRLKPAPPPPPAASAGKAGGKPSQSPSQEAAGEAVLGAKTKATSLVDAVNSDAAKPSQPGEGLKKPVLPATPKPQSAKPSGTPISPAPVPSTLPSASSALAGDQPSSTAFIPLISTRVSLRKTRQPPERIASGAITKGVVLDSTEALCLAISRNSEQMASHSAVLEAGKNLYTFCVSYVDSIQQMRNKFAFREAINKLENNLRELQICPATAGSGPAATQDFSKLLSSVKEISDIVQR", "units": {"Ki": "nM"}, "description": "Inhibition of recombinant c-Abl after 30 mins", "values": [{"smiles": "Cn1c(=O)c(-c2ccccc2Br)cc2cnc(NCc3cccc(N)c3)nc21", "Ki": 40}, {"smiles": "Cn1c(=O)c(-c2ccccc2)cc2cnc(NCc3cccc(N)c3)nc21", "Ki": 2000}, {"smiles": "Cn1c(=O)c(-c2c(Cl)cccc2Cl)cc2cnc(Nc3cccc(NC(=O)CN)c3)nc21", "Ki": 0.02}, {"smiles": "CSc1cccc(CNc2ncc3cc(-c4c(Cl)cccc4Cl)c(=O)n(C)c3n2)c1", "Ki": 70}, {"smiles": "Cn1c(=O)c(-c2c(F)cccc2F)cc2cnc(NCc3cccc(N)c3)nc21", "Ki": 40}, {"smiles": "Cn1c(=O)c(-c2c(Cl)cccc2Cl)cc2cnc(NCc3cccc(C(=O)CCCC[C@@H]4SC[C@@H]5NC(=O)N[C@@H]54)c3)nc21", "Ki": 20}, {"smiles": "Cn1c(=O)c(-c2c(Cl)cccc2Cl)cc2cnc(NCc3cccc(NC(=O)CN)c3)nc21", "Ki": 20}, {"smiles": "CCCCCCNc1cccc(CNc2ncc3cc(-c4c(Cl)cccc4Cl)c(=O)n(C)c3n2)c1", "Ki": 900}, {"smiles": "Cn1c(=O)c(-c2c(Cl)cccc2Cl)cc2cnc(NCc3cccc(N)c3)nc21", "Ki": 8}, {"smiles": "Cn1c(=O)c(-c2ccccc2Cl)cc2cnc(NCc3cccc(N)c3)nc21", "Ki": 60}]}]}
